The values below come from patent US8618074B2, “GPCR enhanced neuroprotection to treat brain injury” (Board of Regents of the University of Texas System, priority 2007, dated 2013).

Molecules are shown by their SMILES.

One test concerns Mouse cortical neurons. The experiment in a line: Neuronal survival in transwell co-culture with astrocytes under t-buOOH oxidative stress (Hoechst/calcein). It is filed as cell-based. As to the method:
(§1) Primary cultures of astrocytes were prepared as previously published (Lin et al., 2005). C57BL/6 male mice were purchased from the National Institute of Aging and maintained in standard accredited housing conditions at the University of Texas Health Science Center Animal Facility. Animal protocols were approved by our Institutional Animal Care Use Committee. Astrocytes were cultured in DMEM F-12 media (Invitrogen, # 11039-021) supplemented with 2 mM glutamine, nonessential amino acids, 10% fetal calf serum, 100 U/ml penicillin/streptomycin (Cambrex BioScience Walkersville, #17-602E) and 1% fungizone (Invitrogen, #15290-018) at 37° C. in an atmosphere containing 5% CO2. The culture medium was changed every 3-5 days. Confluent cells were gently removed by a trypsin EDTA solution and re-plated on 35 mm glass bottom chambers (Bioptechs #04200415C) prior to imaging experiments 3-4 days later. Cells were maintained in plastic culture flasks until the final re-seeding of cells onto a glass bottom chamber and were passed up to 3 times for astrocyte only experiments. For co-culture experiments with neurons, primary astrocytes were plated directly onto corning transwell-clear permeable supports, which physically separates the two cell-types by ˜1 mm (# 07-200-170, Fisher scientific). Astrocytes were cultured in transwells until they were ˜70% confluent. Mouse cortical neurons (Cambrex Bio Science Walkersville Inc., # M-CX-300) were then cultured onto 6 well mat-tek glass bottom plates and maintained in Neurobasal Medium (Invitrogen, # 21103-049), 2 mM L-Glutamine (Cambrex BioScience Walkersville, #17-605E), 100 U/ml penicillin/streptomycin (Cambrex BioScience Walkersville, #17-602E) and B-27 with (Invitrogen, #17504-044) and without antioxidants (Invitrogen, #10889-038), which controls glia contamination to less than 0.5%. The transwell supports with cultured astrocytes were placed in the neuron seeded glass bottom chambers for four days before imaging and both cell types were then maintained in neuronal media. For neuron only experiments, the astrocytes on the transwell supports were removed prior to treatments and imaging.
(§2) Sensitivity of neurons to oxidative stress was assessed by treating cultures with 100 μM tert-butyl hydrogen peroxide (t-BuOOH, Sigma, #B-2633) for 3 hours. Neurons were then stained with Hoechst 33342 (10 μg/ml, Molecular Probes, #H-3570) to label all cell nuclei and calcein AM (2 μM, #C3100, Molecular Probes, #C3100). […] Calcein fluorescence is only observed in live cells that have maintained their plasma membrane integrity. Images were acquired on an inverted Nikon TE300 microscope with a Hamamatsu ORCAER camera and Open lab software (Improvision).
To determine whether P2Y-R enhanced mitochondrial metabolism in astrocytes affected neuronal resistance to oxidative stress, we prepared co-cultures of neurons and astrocytes using corning transwell-clear permeable supports, which physically separates the two cell-types by ˜1 mm (# 07-200-170, Fisher scientific). Primary cultures of astrocytes were directly prepared in transwell supports until they were ˜70% confluent. Mouse cortical neurons were then cultured onto glass bottom mattek plates and maintained in B-27/Neurobasal Medium to control glia contamination to less than 0.5% (Invitrogen). After four days, co-cultures were treated with t-buOOH (100 μM) for 4 hours with and without pre-stimulation of ATP (2 μM, 10 minutes). Cells were then stained with the DNA intercalating dye Hoechst 33342 (10 μg/ml, Molecular Probes, #H-3570) and calcein AM (2 μM, Molecular Probes, #C3100). […] We then tested the neuroprotective affects of isoform specific purinergic ligands 2-MeSADP(P2Y1-R) and UTP(P2Y2-R). FIG. 6A depicts histogram plots of the percentage of neurons alive when cocultured with young or old astrocytes. FIG. 6B depicts histogram plots of the percentage of neurons alive pretreated with either 2-MeSADP (2 μM) or UTP (50 μM) for 10 min. […]

Test [1] has as its system Neurons in the absence of astrocytes. Put plainly: Neuronal survival under t-buOOH in the absence of astrocytes (transwells removed before ligand treatment). In kind it is cell-based, mouse. On the procedure:
as §1, §2
Activation of neuronal P2X receptors has been reported neurotoxic. Consequently, we further examined the affects of P2Y-R activation on neuronal survival in the absence of astrocytes. Neurons were co-cultured with astrocytes in transwell dishes that were removed from the cultures just prior to treating the neurons with purinergic ligands. Neurons in the absence of astrocytes were then exposed to t-buOOH (100 μM, 4.5 hours with normal B-27, 3 hours with antioxidant-free B-27) and cell viability was assessed by the ability of neurons to retain calcien. […] The same results were found for neurons initially co-cultured with old astrocytes. […]

Another test has as its system astrocytes. The experiment in a line: O2 consumption assay (Clark electrode respirometry). It is filed as cell-based, mouse. As to the method: O2 consumption was monitored with a Clark electrode (Mitocell S200 micro respirometry system; Strathkelvin Instruments). Astrocytes (500 μl at 10^5 cells/ml) were loaded into a 500 μl MT200A Respirometer Chamber, suspended by a fixed-speed solid-state magnetic stirrer inside the chamber and maintained at 37° C. by a circulating water bath. O2 was monitored for 4 minutes before injecting 5 μl of ATP (200 μM) into the chamber. O2 consumption was then monitored for another 4 minutes. Changes in O2 levels were calculated by respirometry software. For control recordings, 5 μl of buffer was injected into chamber. Oligomycin astrocytes were treated with oligomycin (0.01 μM) for 30 minutes before trypsinization and loading into chamber.
To further investigate the importance of mitochondrial metabolism on the protective effect of P2Y-R activation, we first measured the rate of O2 consumption for astrocytes with and without P2Y-R activation. Primary cultures of astrocytes were grown to ˜70% confluency, gently removed by trypsin EDTA and resuspended in PBS buffer. Astrocytes (10^5 cells/ml) were then loaded into a 500 μl Respirometer Chamber MT200A) and maintained at 37° C. by a circulating water bath. FIG. 5A depicts plots of O2 levels in suspended astrocytes as labeled. FIG. 5B depicts a histogram showing the average change in O2 consumption with 2 μM ATP compared to untreated cells (control). Bars on the right show O2 consumption of Astrocytes are preloaded 0.01 uM Oligomycin (30 minutes).

[2] abbreviates: neurons initially co-cultured with old astrocytes, astrocytes removed, t-buOOH 100 μM.
Setting [3] is: neurons without astrocytes, normal B-27, t-buOOH 100 μM 4.5 hours.

On to `CSc1nc(N)c2ncn([C@@H]3O[C@H](COP(=O)(O)OP(=O)(O)O)[C@@H](O)[C@H]3O)c2n1` [2-MeSADP], for which the “% neurons alive (neuronal survival)” value in the test on Mouse cortical neurons (anti-oxidant-free B-27, 2-MeSADP 2 μM 10 minutes, t-buOOH 100 μM 3 hours) is reported as 43±3%. For the same molecule, the “% neurons alive” value in the test on Mouse cortical neurons (co-cultures, 10 min pre-treatment 2-MeSADP 2 μM or UTP 50 μM, 4.5 hours of t-buOOH) is reported as 70±2%; in test [1] (setting [2]) it was 72±3%; in test [1] (setting [3]), 74±3%.
For the molecule `Nc1ncnc2c1ncn2[C@@H]1O[C@H](COP(=O)(O)OP(=O)(O)OP(=O)(O)O)[C@@H](O)[C@H]1O` [ATP], the neuronal survival with Mouse cortical neurons (co-cultured with old astrocytes, ATP 2 μM 10 minutes pre-stimulation, t-buOOH 100 μM 4 hours) is 87±2%; with Mouse cortical neurons (co-cultured with young astrocytes, ATP 2 μM 10 minutes pre-stimulation, t-buOOH 100 μM 4 hours), 87±2%. In addition, the “rate of O2 consumption” value in the test on astrocytes (bolus of ATP, 2 μM final concentration) worked out at 3.67 ± 0.3 nmol/min. Further, the “% neurons alive” value in test [1] (setting [2]) worked out at 49±6%; in test [1] (neurons without astrocytes, anti-oxidant-free B-27, t-buOOH 100 μM 3 hours), 18±2%; in test [1] (setting [3]), 56±7%.
Regarding `CC[C@H]1/C=C/C=C/C[C@@H](C)[C@H](O)[C@@](C)(O)C(=O)[C@@H](C)[C@H](O)[C@@H](C)C(=O)[C@@H](C)[C@H](O)[C@@H](C)/C=C/C(=O)O[C@@H]2[C@H](C)[C@H](CC1)O[C@]1(CC[C@H](C)[C@H](C[C@@H](C)O)O1)[C@H]2C` [oligomycin], the neuronal survival with Mouse cortical neurons (anti-oxidant-free B-27, oligomycin 0.01 μM 30 minutes + 2-MeSADP, t-buOOH 3 hours) is 26±3%; with Mouse cortical neurons (anti-oxidant-free B-27, oligomycin 0.01 μM 30 minutes, t-buOOH 3 hours) it was 25±3%. The “rate of O2 consumption” value with astrocytes (oligomycin 0.01 μM 30 minutes + extracellular ATP) was found to be 1.19 ± 0.27 nmol/min; in the test on astrocytes (oligomycin 0.01 μM, 30 minutes) it was 0.97 ± 0.21 nmol/min.
